The target of experiment [1] is T1, 5-Lipoxygenase from RBL-1 20,000xg Supernatant (Rattus norvegicus, UniProt P12527).
T1 construct: 20,000 xg supernatant from 1.5 million homogenized RBL-1 cells; endogenous in cells; host or cells: RBL-1 cells (20,000 xg supernatant of homogenate)
T1 sequence (P12527 1-673): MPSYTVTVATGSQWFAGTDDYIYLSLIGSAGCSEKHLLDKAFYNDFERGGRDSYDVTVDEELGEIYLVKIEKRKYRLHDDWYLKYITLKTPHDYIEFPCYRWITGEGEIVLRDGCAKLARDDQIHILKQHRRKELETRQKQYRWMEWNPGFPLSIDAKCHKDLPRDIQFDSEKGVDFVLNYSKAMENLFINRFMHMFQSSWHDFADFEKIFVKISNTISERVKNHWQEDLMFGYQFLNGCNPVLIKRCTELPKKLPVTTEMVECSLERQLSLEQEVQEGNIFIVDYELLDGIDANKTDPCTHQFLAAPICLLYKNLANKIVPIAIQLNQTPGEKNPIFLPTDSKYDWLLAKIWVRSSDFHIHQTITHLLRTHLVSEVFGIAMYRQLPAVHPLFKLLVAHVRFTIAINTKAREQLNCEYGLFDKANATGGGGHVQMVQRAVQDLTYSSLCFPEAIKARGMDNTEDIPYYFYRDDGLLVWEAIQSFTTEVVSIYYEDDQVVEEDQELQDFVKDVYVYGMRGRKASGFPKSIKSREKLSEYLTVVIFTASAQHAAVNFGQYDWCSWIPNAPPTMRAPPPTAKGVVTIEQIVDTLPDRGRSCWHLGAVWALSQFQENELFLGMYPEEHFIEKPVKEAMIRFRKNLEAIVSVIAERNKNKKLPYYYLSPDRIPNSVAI
Briefly: 5-lipoxygenase inhibitory activity, 20,000 xg supernatant from homogenized RBL-1 cells. To be noted: radiolabeled arachidonic acid, triplicate. It is filed as biochemical. How it is done: Assays to determine 5-lipoxygenase inhibitory activity of representative compounds of the present invention were performed in […] incubations containing the 20,000 xg supernatant from 1.5 million homogenized RBL-1 cells and various concentrations of the test compound. Reactions were initiated by addition of radiolabeled arachidonic acid and terminated by acidification and ether extraction. Reaction products were separated from nonconverted substrate by thin layer chromatography and measured by liquid scintillation spectroscopy. All incubations are performed in triplicate. Inhibition of 5-lipoxygenase activity was calculated as the ratio of the amount of product formed in the presence and absence of inhibitor. […] (Dyer, R. D.; Haviv, F.; Hanel, A. M.; Bornemier, D. A.; Carter, G. W. Fed. Proc., Fed. Am. Soc. Exp. Biol. 1984, 43, 1462A).

Experiment [2] deals with Leukotrienes (biosynthesis). Briefly: Inhibition of leukotriene biosynthesis in vivo after oral administration, rat peritoneal anaphylaxis model. The settings on record: 1 h, gavage one hour prior to antigen challenge, read-out: Percent Inhibition of Leukotrienes; for inhibition in vivo at 100 µmol/kg: Oral Dose at 100 μmol/kg; for inhibition in vivo at 30 µmol/kg: Oral Dose at 30 μmol/kg; for inhibition in vivo at 200 µmol/kg: Oral Dose at 200 μmol/kg. Here is the method: Inhibition of the biosynthesis of leuktrienes in vivo after oral administration of compound was determined using a rat peritoneal anaphylaxis model in a similar manner as that described by Young and coworkers (Young, P. R.; Dyer, R. D.; Carter, G. W. Fed. Proc., Fed. Am. Soc. Exp. Biol. 1985, 44, 1185). In this model rats were injected intraperitoneally (ip) with rabbit antibody to bovine serum albumin (BSA) and three hours later injected ip with BSA to induce an antgen-antibody response. Rats were sacrificed 15 minutes after this challenge and the peritoneal fluids were collected and analyzed for leukotriene levels. Test compounds were administered by gavage one hour prior to the antigen challenge. Percent inhibition values were determined by comparing the treatment group to the mean of the control group.

Structures are written as SMILES.

In experiment [1], `CNC(=O)N(O)C(C)C#Cc1ccc(Cl)cc1` (centres unmarked) [Example 20, N-Hydroxy-N-[4-(4-chlorophenyl)-3-butyn-2-yl]-N'-methylurea] registered an IC50 of 1100 nM. In experiment [2], the inhibition in vivo at 100 µmol/kg was determined as 89%.

In turn, `CC(C#Cc1cccc(Oc2ccc(Cl)cc2)c1)N(O)C(N)=O` (centres unmarked) [Example 42, N-Hydroxy-N-[4-[3-(4-chlorophenoxy)phenyl]-3-butyn-2-yl]urea] came in with an IC50 in experiment [1] of 500 nM. Moreover, the inhibition in vivo at 100 µmol/kg in experiment [2] is 66%.

Compound `NC(=O)N(O)CC#Cc1cccc(Oc2ccc(F)cc2)c1` [Example 44, N-Hydroxy-N-[3-[3-(4-fluorophenoxy)phenyl]-2-propynyl]urea] gave an IC50 in experiment [1] of 400 nM. The inhibition in vivo at 100 µmol/kg in experiment [2] was 99%.

The compound `CC(C#CCc1ccccc1)N(O)C(N)=O` (centres unmarked) [Example 30, N-Hydroxy-N-(5-phenyl-3-pentyn-2-yl)urea] registered an IC50 in experiment [1] of 2100 nM. Also, the inhibition in vivo at 100 µmol/kg in experiment [2] is 95%.

As for `CC(C#Cc1ccc(Sc2ccccc2)o1)N(O)C(N)=O` (centres unmarked) [Example 59, N-hydroxy-N-[4-(5-thiophenoxy-2-furyl)-3-butyn-2-yl]urea], in experiment [1], inhibition was half-maximal at 200 nM (IC50). In experiment [2], the inhibition in vivo at 30 µmol/kg worked out at 62%.

Consider `CC(C#Cc1ccc(Cl)cc1)N(O)C(N)=O` (centres unmarked) [Example 19, N-Hydroxy-N-[4-(4-chlorophenyl)-3-butyn-2-yl]urea], for which 400 nM corresponded to half-maximal inhibition in experiment [1] (IC50). Also, in experiment [2], the inhibition in vivo at 100 µmol/kg came out at 82%.

Turning to `CC(C#CCSc1ccccc1)N(O)C(N)=O` (centres unmarked) [Example 4, N-Hydroxy-N-(5phenylthio-3-pentyn-2-yl)urea], in experiment [1], inhibition was half-maximal at 400 nM (IC50). Moreover, the inhibition in vivo at 200 µmol/kg in experiment [2] turned out to be 64%.

In turn, `CC(C#Cc1cccc(Oc2ccc(F)cc2)c1)N(O)C(N)=O` (centres unmarked) [Example 43, N-Hydroxy-N-[4-[3-(4-fluorophenoxy)phenyl]-3-butyn-2-yl]urea] returned a half-inhibitory concentration (IC50) in experiment [1] of 300 nM. Further, the inhibition in vivo at 100 µmol/kg in experiment [2] came to 98%.

For the compound `CC(C#Cc1ccccc1)N(O)C(N)=O` (centres unmarked) [Example 1, N-Hydroxy-N(4-phenyl-3-butyn-2-yl)urea], in experiment [1], the 50% inhibitory concentration (IC50) worked out at 2400 nM. In addition, in experiment [2], the inhibition in vivo at 200 µmol/kg stood at 98%.

Take `Cc1cccc(Oc2cccc(C#CC(C)N(O)C(N)=O)c2)n1` (centres unmarked) [Example 67, N-Hydroxy-N-[4-[3-(6-methylpyridin-2-yloxy)phenyl]-3-butyn-2-yl]urea]: in experiment [1], the IC50 is 300 nM. In addition, in experiment [2], the inhibition in vivo at 30 µmol/kg worked out at 56%.

In the case of `CC(C)c1ccc(C#CC(C)N(O)C(N)=O)cc1` (centres unmarked) [Example 22, N-Hydroxy-N-[4-[4-(1-methylethyl)phenyl]-3-butyn-2-yl]urea], 400 nM corresponded to half-maximal inhibition in experiment [1] (IC50). Also, the inhibition in vivo at 100 µmol/kg in experiment [2] is 86%.

Turning to `CC(C#Cc1ccc(Br)cc1)N(O)C(N)=O` (centres unmarked) [Example 17, N-Hydroxy-N-[4-(4-bromophenyl)-3-butyn-2-yl]urea], 800 nM corresponded to half-maximal inhibition in experiment [1] (IC50). Besides, the inhibition in vivo at 200 µmol/kg in experiment [2] came out at 98%.

`CC(C#Cc1ccoc1)N(O)C(N)=O` (centres unmarked) [Example 34, N-Hydroxy-N-[4-(3-furyl)-3-butyn-2-yl]urea]: in experiment [1], the concentration for half-maximal inhibition (IC50) amounted to 7000 nM. Further, in experiment [2], the inhibition in vivo at 100 µmol/kg worked out at 96%.

Regarding `CC(C#CC1CCCCC1)N(O)C(N)=O` (centres unmarked) [Example 8, N-Hydroxy-N-[4-cyclohexyl-3-butyn-2-yl]urea], in experiment [1], the IC50 is 1900 nM. Besides, in experiment [2], the inhibition in vivo at 200 µmol/kg was determined as 41%.

In experiment [1], `CC(C#Cc1cccc(Oc2nccs2)c1)N(O)C(N)=O` (centres unmarked) [Example 66, N-Hydroxy-N-[4-[3-(2-thiazolyloxy)phenyl]-3-butyn-2-yl]urea] showed an IC50 of 500 nM. For the same compound, the inhibition in vivo at 30 µmol/kg in experiment [2] amounted to 40%.

`CC(C#CCCc1ccccc1)N(O)C(N)=O` (centres unmarked) [Example 26, N-Hydroxy-N-(6-phenyl-3-hexyn-2-yl)urea]: in experiment [1], the IC50 is 900 nM. Further, in experiment [2], the inhibition in vivo at 100 µmol/kg was 78%.

`CC(C#Cc1cccc(Oc2cccc(Cl)n2)c1)N(O)C(N)=O` (centres unmarked) [Example 68, N-Hydoxy-N-[4-[3-(6-chloropyridin-2-yloxy)phenyl]-3-butyn-2-yl]urea] came in with an IC50 in experiment [1] of 200 nM. Moreover, the inhibition in vivo at 30 µmol/kg in experiment [2] amounted to 61%.

The compound `COc1ccc(Oc2cccc(C#CCN(O)C(N)=O)c2)cc1` [Example 39] showed an IC50 in experiment [1] of 600 nM. Besides, the inhibition in vivo at 100 µmol/kg in experiment [2] amounted to 96%.

Turning to `CC(C#Cc1ccc(Oc2ccc(F)cc2)o1)N(O)C(N)=O` (centres unmarked) [Example 57, N-hydroxy-N-{4-[5-(4-fluorophenoxy)-2-furyl]-3-butyn-2-yl}urea], the half-maximal inhibitory concentration (IC50) in experiment [1] worked out at 200 nM. For the same compound, the inhibition in vivo at 30 µmol/kg in experiment [2] came out at 83%.

`CC(C#CCCCc1ccccc1)N(O)C(N)=O` (centres unmarked) [Example 11, N-Hydroxy,N-(7-phenyl-3-heptyn-2-yl)urea]: in experiment [1], the IC50 amounted to 700 nM. In experiment [2], the inhibition in vivo at 200 µmol/kg stood at 99%.

As for `CC(C#Cc1ccc(F)cc1)N(O)C(N)=O` (centres unmarked) [Example 21, N-Hydroxy-N-[4,(4-fluorophenyl)-3-butyn-2-yl]urea], it took 2100 nM to reach half-maximal inhibition in experiment [1] (IC50). Further, in experiment [2], the inhibition in vivo at 100 µmol/kg came out at 90%.

For the compound `CCC(C#Cc1cccc(Oc2ccccn2)c1)N(O)C(N)=O` (centres unmarked) [Example 64, N-Hydroxy-N-[5-[3-(2-pyridinyloxy)phenyl]-4-pentyn-3-yl]urea], 600 nM corresponded to half-maximal inhibition in experiment [1] (IC50). For the same compound, in experiment [2], the inhibition in vivo at 30 µmol/kg worked out at 78%.

Compound `CCc1ccc(C#CC(C)N(O)C(=O)NC)cc1` (centres unmarked) [Example 25, N-Hydroxy-N-[4-(4-ethylphenyl)-3-butyn-2-yl]-N'-methylurea] showed a half-maximal inhibitory concentration (IC50) in experiment [1] of 400 nM. Further, the inhibition in vivo at 100 µmol/kg in experiment [2] was 69%.

In the case of `Cc1ccc(Oc2ccc(C#CC(C)N(O)C(N)=O)o2)cc1` (centres unmarked) [Example 62, N-hydroxy-N-{4-[5-(4-methylphenoxy)-2-furyl]-3-butyn-2-yl}urea], the IC50 in experiment [1] is 300 nM. For the same compound, the inhibition in vivo at 30 µmol/kg in experiment [2] came to 65%.

Take `CC(C#Cc1cccc(Oc2ccccn2)c1)N(O)C(N)=O` (centres unmarked) [Example 47, N-Hydroxy-N-[4-[3-(2-pyridinyloxy)phenyl]-3-butyn-2-yl]urea]: it took 900 nM to reach half-maximal inhibition in experiment [1] (IC50). For the same compound, the inhibition in vivo at 100 µmol/kg in experiment [2] came to 99%.

The term IC50 denotes the concentration needed to halve the response being measured. A lower IC50 goes with inhibition by little substance.

The values are drawn from US5559144A, “Furyl and thienyl alkynyl-N-hydroxy urea derivatives” (Abbott Laboratories, priority 1995, dated 1996).
